Experiments:
[1] = target: T1, Stat5b (Homo sapiens, UniProt P51692); assay: Stat5b transcriptional activity, beta-casein promoter luciferase reporter gene assay in PC-3 cells; assay type: cell-based; settings: varying concentration
T1 construct: expressed in transfected cells; host or cells: PC-3 human prostate cancer cells
T1 sequence (P51692 1-787): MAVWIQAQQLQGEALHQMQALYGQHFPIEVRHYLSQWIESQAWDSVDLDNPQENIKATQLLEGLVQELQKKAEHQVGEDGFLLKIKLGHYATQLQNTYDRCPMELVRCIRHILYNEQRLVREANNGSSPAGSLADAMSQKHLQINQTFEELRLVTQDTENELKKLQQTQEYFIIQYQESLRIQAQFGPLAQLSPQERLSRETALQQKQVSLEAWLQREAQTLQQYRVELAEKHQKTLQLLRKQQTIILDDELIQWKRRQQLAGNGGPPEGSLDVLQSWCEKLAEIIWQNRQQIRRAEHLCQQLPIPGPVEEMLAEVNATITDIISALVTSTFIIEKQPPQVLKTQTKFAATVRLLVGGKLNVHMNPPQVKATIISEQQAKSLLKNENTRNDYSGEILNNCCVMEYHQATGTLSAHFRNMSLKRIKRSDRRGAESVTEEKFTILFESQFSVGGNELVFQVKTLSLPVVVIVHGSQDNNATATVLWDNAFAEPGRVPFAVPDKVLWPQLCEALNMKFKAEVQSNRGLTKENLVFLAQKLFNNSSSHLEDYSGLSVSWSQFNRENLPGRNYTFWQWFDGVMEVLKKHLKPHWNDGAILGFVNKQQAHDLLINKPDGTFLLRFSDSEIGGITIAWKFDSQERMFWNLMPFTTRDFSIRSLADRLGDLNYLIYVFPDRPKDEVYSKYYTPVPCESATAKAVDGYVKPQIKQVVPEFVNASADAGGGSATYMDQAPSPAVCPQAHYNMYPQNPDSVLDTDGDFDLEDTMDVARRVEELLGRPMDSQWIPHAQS
Procedure: Cells of the human prostate cell line PC-3 were plated into 96-well plate at the density of 2×10^5 per well. After 24 hours of plating, cells were transiently co-transfected using FuGENE6 (Roche) with 0.25 μg of each of pStat5a or pStat5b, pPrlR (prolactin receptor) plasmids, 0.5 μg of pBeta-casein-luc and 0.025 μg of pRL-TK (Renilla luciferase) plasmids as an internal control. After another 24 hours of transfection, the cells were starved in serum-free medium for 8 hours, pretreated with N^6-benzyladenosine (“N6BA”), or the control compound C5, for 1 hour, and then stimulated with 10 nM human prolactin (hPrl) in the serum-free medium for additional 16 hours. The lysates were assayed for firefly and Renilla luciferase activities using the Dual-Luciferase reporter assay system (Promega). Three independent experiments were carried out in triplicate. The firefly luciferase activity was normalized to the Renilla luciferase activity of the same sample, and the mean was calculated from the parallels. From the mean values of each independent run, the overall mean and its standard deviation (S.D.) were calculated.

[2] = test system: Stat5a/b; assay: Constitutive Stat5a/b phosphorylation in imatinib-sensitive KCL22S cells (Western blot); assay type: cell-based, human
Procedure: (§1) Exponentially growing KCL22S and KCL22R cells were treated with Compound 1 or Compound 2 at various concentrations for 3 h and 16 h (Compound 1) or 3 h, 6 h or 16 h (Compound 2) after which the cells were harvested. Cell pellets were solubilized in lysis buffer [10 mM Tris-HCl (pH 7.6), 5 mM EDTA, 50 mM sodium chloride, 30 mM sodium pyrophosphate, 50 mM sodium fluoride, 1 mM sodium orthovanadate, 1% Triton X-100, 1 mM phenylmethylsulfonyl fluoride, 5 μg/ml aprotinin, 1 μg/ml pepstatin A, and 2 μg/ml leupeptin], rotated end-over-end at 4° C. for 60 min, and insoluble material was pelleted at 12,000×g for 30 min at 4° C. The protein concentrations of clarified cell lysates were determined by simplified Bradford method (Bio-Rad Laboratories, Hercules, Calif.). Western blotting of the lysates was carried out using, as primary antibodies, the following antibodies at the following concentrations: anti-phosphotyrosine-Stat5a/b (Y694/Y699) mAb (1 μg/ml, Advantex BioReagents, Conroe, Tex.), anti-Stat5ab mAb (1:250; BD Biosciences, San Jose, Calif.) or anti-actin pAb (Sigma). Anti-actin was included as a control.
(§2) Exponentially growing K562 cells were treated with NBPP for 3 h or 6 h after which the cells were harvested. Exponentially growing K562 cells or imatinib-resistant K562 cells were treated with NBPP for 6 h or 16 h after which the cells were harvested. Cell pellets were solubilized in lysis buffer [10 mM Tris-HCl (pH 7.6), 5 mM EDTA, 50 mM sodium chloride, 30 mM sodium pyrophosphate, 50 mM sodium fluoride, 1 mM sodium orthovanadate, 1% Triton X-100, 1 mM phenylmethylsulfonyl fluoride, 5 μg/ml aprotinin, 1 μg/ml pepstatin A, and 2 μg/ml leupeptin], rotated end-over-end at 4° C. for 60 min, and insoluble material was pelleted at 12,000×g for 30 min at 4° C. The protein concentrations of clarified cell lysates were determined by simplified Bradford method (Bio-Rad Laboratories, Hercules, Calif.). […]

[3] = test system: Stat5a/b; assay: Constitutive Stat5a/b phosphorylation in imatinib-resistant KCL22R cells (Western blot); assay type: cell-based, human
Procedure: as §1, §2

[4] = test system: CWR22Rv1 prostate cancer cells; assay: Cell viability, MTS assay, CWR22Rv1 prostate cancer cells; assay type: cell-based, human; settings: CWR22Rv1, 72 h, 3.1, 6.3, 12.5, 25 and 50 μM, vs control compound C5
Procedure: (§3) Exponentially growing CWR22Rvl prostate cancer cells were treated with Compound 1, Compound 2 or the control compound C5 for 72 h at 3.1, 6.3. 12.5, 25 and 50 μM concentrations. The cell viability was assessed by MTS (3-(4,5-dimethylthiazolyl-2)-2,5-diphenyl-tetrazolium bromide) metabolic activity assay (CellTiter 96® AQueous Assay kit).
as §3, with “CWR22Rv1” for “CWR22Rvl”, “cancer cells, K562 leukemia cells and imatinib-sensitive KCL22S and imatinib-resistant KCL22R chronic myeloid leukemia” for “cancer”, “NBPP” for “Compound 1, Compound 2”
as §3, with “N6BA” for “Compound 1, Compound 2”

[5] = KCL22S, various concentrations, 3 h and 16 h (Compound 1) or 3 h, 6 h or 16 h (Compound 2)
[6] = KCL22R, various concentrations, 3 h and 16 h (Compound 1) or 3 h, 6 h or 16 h (Compound 2)

| Compound | effect on transcriptional activity of Stat5b [1] | effect on phosphorylation of Stat5 [2, 5] | effect on phosphorylation of Stat5 [3, 6] | number of viable cells [4] | effect on phosphorylation of Stat5 ([2]; KCL22S imatinib-sensitive, 6 h or 16 h) | effect on phosphorylation of Stat5 ([3]; KCL22R imatinib-resistant, 6 h or 16 h) |
| --- | --- | --- | --- | --- | --- | --- |
| OC[C@H]1O[C@@H](n2cnc3c(N4CCc5ccccc5C4)ncnc32)[C@H](O)[C@@H]1O [Compound 1, (2R,3R,4S,5R)-2-(6-(3,4-Dihydroisoquinolin-2(1H)-yl)-9H-purin-9-yl)-5-(hydroxymethyl)tetrahydrofuran-3,4-diol] | inhibited Stat5a and Stat5b transcriptional activity in a concentration-dependent manner | block phosphorylation of Stat5 | block phosphorylation of Stat5 | decreased the number of viable prostate cancer cells compared to the control compound | – | – |
| OC[C@H]1O[C@@H](n2ccc3c(NCc4ccccc4)ncnc32)[C@H](O)[C@@H]1O [NBPP, N-(phenylmethyl)-7-β-D-ribofuranosyl-7H-pyrrolo[2,3-d]pyrimidin-4-amine] | – | – | – | decreased the number of viable prostate cancer cells | inhibits phosphorylation of Stat5 | inhibits phosphorylation of Stat5 |
| OC[C@H]1O[C@@H](n2cnc3c(NNc4ccccc4)ncnc32)[C@H](O)[C@@H]1O [Compound 2, (2R,3S,4R,5R)-2-(hydroxymethyl)-5-(6-(2-phenylhydrazinyl)-9H-purin-9-yl)tetrahydrofuran-3,4-diol] | inhibited Stat5a and Stat5b transcriptional activity in a concentration-dependent manner | block phosphorylation of Stat5 | block phosphorylation of Stat5 | decreased the number of viable prostate cancer cells compared to the control compound | – | – |
| OC[C@H]1O[C@@H](n2cnc3c(NCc4ccccc4)ncnc32)[C@H](O)[C@@H]1O [Compound N6BA, N^6-benzyladenosine] | inhibited Stat5 transcriptional activity in a concentration-dependent manner | – | – | decreased the number of viable prostate cancer cells | – | – |

Reference: patent US20150209379A1, “TREATMENT OF PROSTATE CANCER AND HEMATOLOGIC NEOPLASMS” (THOMAS JEFFERSON UNIVERSITY, priority 2012, published 2015)
